Laboratory results published in patent US20220153732A1, “PROTEIN SECRETION INHIBITORS” (KEZAR LIFE SCIENCES, priority 2019, published 2022).
pEC50, pIC50: −log10 of the molar value. Read-outs that look alike come from different tables or passages of the source.

How the values were obtained:
Assay type in all cases: cell-based
[1] = tested on: HER3-ss+4aa/Gaussia Luciferase; assay: Dox-Induced Her3-ss-Gluc Assay; settings: 293FRT/TO cells, read-out: 24 hr Dox Inducible Her3(ss + 4)Gluc 293FRT/TO: Mean IC50
Outline: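 Compounds, diluted in DMSO/media containing doxycycline, were incubated at 37° C., 5% CO2 with cells seeded one day earlier. The cells stably express HER3-ss+4aa/Gaussia luciferase under T-REx control. Where no stereochemistry is shown, data refer to the mixture of stereoisomers.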

[2] = tested on: IL-2-FL/Gaussia Luciferase; assay: Dox Induced IL2-FL-Gluc Assay; settings: 293FRT/TO cells, read-out: 24 hr Dox Inducible IL2FLGIuc 293FRT/TO: Mean IC50
Outline: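 Compounds were added together with doxycycline in DMSO/media and incubated at 37° C., 5% CO2. The cells were a stably selected line carrying IL-2-FL/Gaussia luciferase under T-REx inducible control. Structures drawn without stereochemistry were tested as stereoisomer mixtures.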

[3] = tested on: human multiple myeloma cell line U266B1; assay: U266 Cell Viability Assay; settings: U-266, 48 hr, U266B1 cells, Celltiter-Glo, read-out: 48 hr U266 Viability Celltiter-Glo: Mean EC50
Outline: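 Viability measured by CellTiter-Glo luciferase signal after 48 h compound exposure (37 °C, 5% CO2) of U266B1 cells in 384-well format. Where stereochemistry is not shown, data refer to the stereoisomer mixture.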

[4] = tested on: TNFα-FL/Gaussia Luciferase; assay: Dox Induced TNFα-FL-Gluc Assay; settings: 293FRT/TO cells, read-out: 24 hr Dox Inducible TNFaFLGluc 293FRT/TO: Mean IC50
Outline: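 Compounds were added in doxycycline-containing DMSO/media to cells plated the previous day and incubated at 37° C under 5% CO2. These cells stably express a TNFα-FL/Gaussia luciferase cDNA whose expression is under T-REx (Dox-inducible) control, selected with Hygromycin and Blasticidin.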

[5] = tested on: human multiple myeloma cell line NCI-H929; assay: H929 Cell Viability Assay; settings: 48 hr, NCI-H929 cells, Celltiter-Glo, read-out: 48 hr H929 Viability Celltiter-Glo: Mean EC50
Method: Plates were incubated at 37° C., 5% CO2 for 48 hours. After 48 hours, Celltiter-Glo® (Promega) was added to each well and luciferase signal was quantified using Tecan Infinite M1000 Pro for cell viability determination.
For chemical structures that include one or more stereoisomers, but are illustrated without indicating stereochemistry, the assay data refers to a mixture of stereoisomers.

[6] = tested on: PD1-ss+10aa/Gaussia Luciferase; assay: Dox-Induced PD1-ss-Gluc Assay; settings: 293FRT/TO cells, read-out: 24 hr Dox Inducible PD1ssGluc 293FRT/TO: Mean IC50
Outline: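 Compounds, diluted in DMSO/media with doxycycline, were added to cells plated a day earlier and kept at 37° C under 5% CO2. The cells stably express a Gaussia luciferase construct fused to PD1-ss+10aa, induced via the T-REx system. Unassigned stereochemistry means mixture data.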

[7] = 24 hr doxycycline induction, Gaussia luciferase signal

pIC50 [1, 7] | pIC50 [2, 7] | pEC50 [3] | pIC50 [4, 7] | pEC50 [5] | pIC50 [6, 7] | pIC50 ([1]; 24 hr, doxycycline-induced) | pIC50 ([2]; 24 hr, doxycycline-induced) | pIC50 ([4]; 24 hr, doxycycline-induced) | pIC50 ([6]; 24 hr, doxycycline-induced) | Compound
< 4.60 | < 4.60 | < 4.60 | < 4.60 | < 4.60 | < 4.60 | – | – | – | – | O=C(Nc1nc2cccnc2s1)c1cccn1Cc1ccncc1 [Compound A121]
5.19 | 4.84 | < 4.60 | < 4.60 | 4.62 | 6.15 | – | – | – | – | O=C(Nc1nc(C2=CCN(c3ccccc3)CC2)cs1)c1cccn1Cc1ccncc1 [Compound A258]
– | – | < 4.60 | – | < 4.60 | – | < 4.60 | < 4.60 | < 4.60 | < 4.60 | CC(C)OC(C)(C)c1csc(NC(=O)Cc2ccc(Cc3ccncc3)[nH]2)n1 [Compound B12, N-(4-(2-isopropoxypropan-2-yl)thiazol-2-yl)-2-(5-(pyridin-4-ylmethyl)-1H-pyrrol-2-yl)acetamide]
5.79 | 5.87 | < 4.60 | 4.93 | < 4.60 | 6.22 | – | – | – | – | O=C(Nc1nc(C2CCC2)cs1)c1cccn1Cc1ccncc1 [Compound A31]
6.55 | 6.07 | < 4.60 | 5.80 | 4.96 | 7.07 | – | – | – | – | O=C(Nc1nc(/C=C/C2CCCCC2)cs1)c1cccn1Cc1ccncc1 [Compound A152, N-(4-(2-cyclohexylvinyl)thiazol-2-yl)-1-(pyridin-4-ylmethyl)-1H-pyrrole-2-carboxamide]
< 4.60 | < 4.60 | < 4.60 | < 4.60 | < 4.60 | < 4.60 | – | – | – | – | O=C(Nc1nc(N2CCCCC2)cs1)c1cccn1Cc1ccncc1 [Compound A264]
6.29 | 6.07 | < 4.60 | 5.44 | 4.66 | 6.70 | – | – | – | – | O=C(Nc1nc([C@@H]2CCN(c3ccccc3)C2)cs1)c1cccn1Cc1ccncc1 [Compound A289]
< 4.60 | < 4.60 | < 4.60 | < 4.60 | < 4.60 | < 4.60 | – | – | – | – | Cc1csc(N(C)C(=O)c2cccn2Cc2ccncc2)n1 [Compound A118]
< 4.60 | 5.08 | < 4.60 | < 4.60 | < 4.60 | 5.00 | – | – | – | – | COc1cnccc1Cn1cccc1C(=O)Nc1nc(C(C)(C)OC(C)C)cs1 [Compound A211, N-(4-(2-isopropoxypropan-2-yl)thiazol-2-yl)-1-((3-methoxypyridin-4-yl)methyl)-1H-pyrrole-2-carboxamide]
– | – | < 4.60 | – | < 4.60 | – | < 4.60 | < 4.60 | < 4.60 | < 4.60 | CC(C)c1csc(NC(=O)[C@@H]2CCCN2C(=O)c2ccncc2)n1 [Compound B20, (S)-1-isonicotinoyl-N-(4-isopropylthiazol-2-yl)pyrrolidine-2-carboxamide]
